Results reported in PMC9845330 (Communications Biology, 2023).
Non-standard residues stand in square brackets, D forms with d. Residues, ends and D or L forms follow the SMILES beside them. *: point of attachment. X1 = O=C(CCCC[C@@H]1SC[C@@H]2NC(=O)N[C@@H]21)NCCCOCCOCCOCCCN*; PEG12 = NCCOCCOCCOCCOCCOCCOCCOCCOCCOCCOCCOCCOCCC(=O)O

Key:
Stability in human serum = assay type: in vitro ADME; settings: 100% human serum, 48 h, 37 °C, serum proteins precipitated, analytical HPLC, MALDI TOF/TOF MS
Experimental: To address if acetylation is effective in reducing serum degradation of MGS4, acetylated (MGS4_V8) and non-acetylated (MGS4_V4) peptides were dissolved in human serum and incubated for 48 h at 37 °C. The peptides were monitored by analytical HPLC, and products were verified via MALDI TOF/TOF™ MS. […] Instead, a mixture of peptide fragments is detected, none of which correspond to the mass of the starting peptide (Supplemental Table 1 and Supplemental Fig. 2). The major products are shorter fragments corresponding to the loss of the five N-terminal amino acids. Fragments related to QSFYT-PEG11, SFYT-PEG11 and FYT-PEG11 are observed.
Supplemental Figure 1. […]
M GS4_V4 (non-acetylated, panel a) and M GS4_V8 (acetylated, panel b ) were incubated in 100% human serum for 0 and 48-hours. Serum proteins were precipitated, and the peptide was analyzed by analytical
HPLC. The mass of the peptide and degradation products were determined by MALDI MS and are […]
MGS4_V8, MGS4_V9, or MGS4_V10 were conjugated with streptavidin-Alexa Fluor 650 and were incubated with the indicated cell line for 1 hour. Non-internalized peptide was rem ov ed, and the mean number of peptides internalized per cell was determined to calculate the EC50. […]
Supplemental Figure 4 : Peptide-Streptavidin conjugates are nontoxic to cells. a. […] After 72 hours, viability was measured. […]

[1] = test system: normal human bronchial epithelial cell line (HBEC); assay: Cell internalization by flow cytometry in normal control cells; assay type: cell-based; settings: 50 nM, 1 h
Text: Optimizing MGS4 as a monomer is efficient but the optimal valency of the truncated peptide may be different than that of the full-length peptide. The peptide was synthesized as a monomer (MGS4_V8), dimer (MGS4_V9), and tetramer (MGS4_V10). To obtain quantitative data, we moved from measuring the relative fluorescence of dye-labeled peptide to the determination of the average number of dye molecules internalized per cell. […] The dimer MGS4_V9 has an EC50 7-fold lower indicating there is a synergistic effect in going from a monomer to a dimer (Fig. 2a and Table 2). However, there is only a 2-fold decrease in going from a dimer to a tetrameric peptide (MGS4_V10). We also calculated the EC50 on three other NSCLC cell lines (Table 2 and Supplementary Figure 3). […]
Non-internalized peptide was removed, and the mean number of peptides internalized per cell was determined to calculate the EC50. […] Error bars, in black, represent standard error measurements and are below the height of the symbols in some cases. b The average number of peptide molecules per cell at 50 nM at 1 h was determined on four NSCLC cell lines and one normal human bronchial epithelial cell line (HBEC). […]
Biotinylated peptide was conjugated to streptavidin-R-phycoerythrin or streptavidin-Alexa Fluor 647 (1:1 molar ratio) for 30 min. […] Flow cytometry was performed on a BD FACSCelesta, and data were analyzed on Flowing software. […]

## CC(=O)N[C@@H](Cc1ccccc1)C(=O)N[C@@H](Cc1c[nH]cn1)C(=O)N[C@@H](C)C(=O)N[C@H](C(=O)N1CCC[C@H]1C(=O)N[C@@H](CCC(N)=O)C(=O)N[C@@H](CO)C(=O)N[C@@H](Cc1ccccc1)C(=O)N[C@@H](Cc1ccc(O)cc1)C(=O)N[C@H](C(=O)NCCOCCOCCOCCOCCOCCOCCOCCOCCOCCOCCOCCOCCC(=O)N[C@@H](CCC(=O)NCCCOCCOCCOCCCNC(=O)CCCC[C@@H]1SC[C@@H]2NC(=O)N[C@@H]21)C(N)=O)[C@@H](C)O)C(C)C [MGS4_V8] (Ac-FHAVPQSFYT[PEG12]E(X1)-NH2)
Stability in human serum
  peptide after incubation in human serum: only full-length peptide observed
[1]
  internalization in normal cells: minimal internalization
